Data from patent publication US20240218022A1, “ANTI-VISTA MACROCYCLIC PEPTIDES AND COMPOSITIONS” (BRISTOL-MYERS SQUIBB COMPANY, priority 2022, published 2024).
Starred links: 1 amine or outer side, 2 acyl side, 3 side chain; linkers in the order of their positions; H or OH if unused. Positions of bridges follow the written chain, without caps; N, C: chain ends. Non-standard residues stand in square brackets, D forms with d. Residues, ends and D or L forms follow the SMILES beside them. Phe(3-Me) = Cc1cccc(C[C@H](N)C(=O)O)c1; 2Nal = N[C@@H](Cc1ccc2ccccc2c1)C(=O)O; βAsp = O=C(O)[C@H](CC(=O)[*:2])N[*:1]; Ala(cPr) = N[C@@H](CC1CC1)C(=O)O; Ahp(2) = CCCCC[C@H](N)C(=O)O; NMeNle = CCCC[C@H](NC)C(=O)O; Tle = CC(C)(C)[C@H](N)C(=O)O; NMeS = CN[C@@H](CO)C(=O)O; NHexGly = CCCCCCNCC(=O)O; Orn = NCCC[C@H](N)C(=O)O; Aun = NCCCCCCCCCCC(=O)O; AEEA = NCCOCCOCC(=O)O

Target: T1, mouse VISTA (mVISTA) (Mus musculus, UniProt Q9D659)
T1 construct: expressed in transfected cells; host or cells: Human embryonic kidney 293T cells
T1 sequence (Q9D659 33-308): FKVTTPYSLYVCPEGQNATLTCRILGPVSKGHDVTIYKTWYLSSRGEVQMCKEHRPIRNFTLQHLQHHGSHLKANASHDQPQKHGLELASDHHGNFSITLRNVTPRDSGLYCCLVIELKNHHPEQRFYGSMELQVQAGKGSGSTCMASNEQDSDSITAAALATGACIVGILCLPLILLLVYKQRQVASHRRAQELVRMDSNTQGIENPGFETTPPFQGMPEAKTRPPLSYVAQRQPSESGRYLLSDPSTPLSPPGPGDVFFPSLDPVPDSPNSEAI
Assay: Cell-Based Binding High-Content Assay For mVISTA (HC CBA mVISTA)
Conditions: cell-based binding high-content assay, mVISTA; read-out: HC CBA miPr ISTA IC50
Outline: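 Competition of compound with a biotinylated peptide (final 2 nM, 30 min at RT) for binding to mVISTA on 293T cells, run under no-wash or wash (1 h compound preincubation then removal) formats. Readout by Alexa 647–streptavidin imaging on a high-content platform; four-parameter logistic fit gave IC50.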

| IC50 [nM] | Structure (SMILES) |
| --- | --- |
| 49.2 | CCCCCCN1CC(=O)N[C@@H](Cc2ccc(O)cc2)C(=O)N[C@@H](CC2CC2)C(=O)N[C@@H](CC(N)=O)C(=O)N[C@@H](CCCN)C(=O)N(C)[C@@H](CCCC)C(=O)N[C@@H](CCCCC)C(=O)N2CCC[C@H]2C(=O)N[C@@H](C(C)(C)C)C(=O)N[C@@H](CO)C(=O)N[C@H](C(=O)N[C@@H](CC(=O)NCCOCCOCC(=O)N[C@@H](CC(=O)O)C(=O)NCCOCCOCC(=O)NCCCCCCCCCCC(=O)O)C(=O)O)CSCC(=O)N[C@@H](Cc2ccccc2)C(=O)N[C@@H](Cc2ccc(O)cc2)C(=O)N[C@@H](CC(=O)O)C1=O [compound 2062] ({CH2CO}-FYD[NHexGly]Y[Ala(cPr)]N[Orn][NMeNle][Ahp(2)]P[Tle]SC[βAsp][AEEA]D[AEEA][Aun]-OH; thioether N-14) |
| 35.3 | CCCCCCN1CC(=O)N[C@@H](Cc2ccc(O)cc2)C(=O)N[C@@H](CC(C)C)C(=O)N[C@@H](CC(=O)O)C(=O)N[C@@H](CCCNC(=N)N)C(=O)N(C)[C@@H](CO)C(=O)N[C@@H](CCCCC)C(=O)N2CCC[C@H]2C(=O)N[C@@H](C(C)(C)C)C(=O)N[C@@H](CC(N)=O)C(=O)N[C@H](C(=O)N[C@@H](CC(=O)NCCOCCOCC(=O)N[C@@H](CC(=O)O)C(=O)NCCOCCOCC(=O)NCCCCCCCCCCC(=O)O)C(=O)O)CSCC(=O)N[C@@H](Cc2ccccc2)C(=O)N[C@@H](Cc2c[nH]c3ccccc23)C(=O)N[C@@H](CC(=O)O)C1=O [compound 2066] ({CH2CO}-FWD[NHexGly]YLDR[NMeS][Ahp(2)]P[Tle]NC[βAsp][AEEA]D[AEEA][Aun]-OH; thioether N-14) |

Same assay, conditions: cell-based binding high-content assay, mVISTA; read-out: HC CBA miPrISTA IC50

| Structure (SMILES) | IC50 [nM] |
| --- | --- |
| CCCCCCN1CC(=O)N[C@@H](Cc2ccc(O)cc2)C(=O)N[C@@H](CC(C)C)C(=O)N[C@@H](CC(N)=O)C(=O)N[C@@H](CCCNC(=N)N)C(=O)N(C)[C@@H](CO)C(=O)N[C@@H](CCCCC)C(=O)N2CCC[C@H]2C(=O)N[C@@H](C(C)(C)C)C(=O)N[C@@H](CC(=O)O)C(=O)N[C@H](C(=O)N[C@@H](CC(=O)NCCOCCOCC(=O)N[C@@H](CC(=O)O)C(=O)NCCOCCOCC(=O)NCCCCCCCCCCC(=O)O)C(=O)O)CSCC(=O)N[C@@H](Cc2ccccc2)C(=O)N[C@@H](Cc2cccc(C)c2)C(=O)N[C@@H](CC(=O)O)C1=O [compound 2069] ({CH2CO}-F[Phe(3-Me)]D[NHexGly]YLNR[NMeS][Ahp(2)]P[Tle]DC[βAsp][AEEA]D[AEEA][Aun]-OH; thioether N-14) | 45 |
| CCCCCCN1CC(=O)N[C@@H](Cc2ccc(O)cc2)C(=O)N[C@@H](CC(C)C)C(=O)N[C@@H](CC(N)=O)C(=O)N[C@@H](CCCNC(=N)N)C(=O)N(C)[C@@H](CO)C(=O)N[C@@H](CCCCC)C(=O)N2CCC[C@H]2C(=O)N[C@@H](C(C)(C)C)C(=O)N[C@@H](CC(=O)O)C(=O)N[C@H](C(=O)N[C@@H](CC(=O)NCCOCCOCC(=O)N[C@@H](CC(=O)O)C(=O)NCCOCCOCC(=O)NCCCCCCCCCCC(=O)O)C(=O)O)CSCC(=O)N[C@@H](Cc2ccc3ccccc3c2)C(=O)N[C@@H](Cc2ccc(O)cc2)C(=O)N[C@@H](CC(=O)O)C1=O [compound 2070] ({CH2CO}-[2Nal]YD[NHexGly]YLNR[NMeS][Ahp(2)]P[Tle]DC[βAsp][AEEA]D[AEEA][Aun]-OH; thioether N-14) | 41.6 |
| CCCCCCN1CC(=O)N[C@@H](Cc2ccc(O)cc2)C(=O)N[C@@H](CC(C)C)C(=O)N[C@@H](CC(N)=O)C(=O)N[C@@H](CCCN)C(=O)N(C)[C@@H](CCCC)C(=O)N[C@@H](CCCCC)C(=O)N2CCC[C@H]2C(=O)N[C@@H](C(C)(C)C)C(=O)N[C@@H](CC(=O)O)C(=O)N[C@H](C(=O)N[C@@H](CC(=O)NCCOCCOCC(=O)N[C@@H](CC(=O)O)C(=O)NCCOCCOCC(=O)NCCCCCCCCCCC(=O)O)C(=O)O)CSCC(=O)N[C@@H](Cc2ccccc2)C(=O)N[C@@H](Cc2cccc(C)c2)C(=O)N[C@@H](CC(=O)O)C1=O [compound 2074] ({CH2CO}-F[Phe(3-Me)]D[NHexGly]YLN[Orn][NMeNle][Ahp(2)]P[Tle]DC[βAsp][AEEA]D[AEEA][Aun]-OH; thioether N-14) | 40 |
| CCCCCCN1CC(=O)N[C@@H](Cc2ccc(O)cc2)C(=O)N[C@@H](CC(C)C)C(=O)N[C@@H](CC(N)=O)C(=O)N[C@@H](CCCNC(=N)N)C(=O)N(C)[C@@H](CCCC)C(=O)N[C@@H](CCCCC)C(=O)N2CCC[C@H]2C(=O)N[C@@H](C(C)(C)C)C(=O)N[C@@H](CO)C(=O)N[C@H](C(=O)N[C@@H](CC(=O)NCCOCCOCC(=O)N[C@@H](CC(=O)O)C(=O)NCCOCCOCC(=O)NCCCCCCCCCCC(=O)O)C(=O)O)CSCC(=O)N[C@@H](Cc2ccccc2)C(=O)N[C@@H](Cc2cccc(C)c2)C(=O)N[C@@H](CC(=O)O)C1=O [compound 2076] ({CH2CO}-F[Phe(3-Me)]D[NHexGly]YLNR[NMeNle][Ahp(2)]P[Tle]SC[βAsp][AEEA]D[AEEA][Aun]-OH; thioether N-14) | 38.1 |
| CCCCCCN1CC(=O)N[C@@H](Cc2ccc(O)cc2)C(=O)N[C@@H](CC(C)C)C(=O)N[C@@H](CC(N)=O)C(=O)N[C@@H](CCCN)C(=O)N(C)[C@@H](CCCC)C(=O)N[C@@H](CCCCC)C(=O)N2CCC[C@H]2C(=O)N[C@@H](C(C)(C)C)C(=O)N[C@@H](CO)C(=O)N[C@H](C(=O)N[C@@H](CC(=O)NCCOCCOCC(=O)N[C@@H](CC(=O)O)C(=O)NCCOCCOCC(=O)NCCCCCCCCCCC(=O)O)C(=O)O)CSCC(=O)N[C@@H](Cc2ccccc2)C(=O)N[C@@H](Cc2cccc(C)c2)C(=O)N[C@@H](CC(=O)O)C1=O [compound 2077] ({CH2CO}-F[Phe(3-Me)]D[NHexGly]YLN[Orn][NMeNle][Ahp(2)]P[Tle]SC[βAsp][AEEA]D[AEEA][Aun]-OH; thioether N-14) | 33.5 |

The next lines start with the values.

| IC50 [nM] | Structure (SMILES) |
| --- | --- |
| 33.4 | CCCCCCN1CC(=O)N[C@@H](Cc2ccc(O)cc2)C(=O)N[C@@H](CC(C)C)C(=O)N[C@@H](CC(N)=O)C(=O)N[C@@H](CCCNC(=N)N)C(=O)N(C)[C@@H](CCCC)C(=O)N[C@@H](CCCCC)C(=O)N2CCC[C@H]2C(=O)N[C@@H](C(C)(C)C)C(=O)N[C@@H](C(C)C)C(=O)N[C@H](C(=O)N[C@@H](CC(=O)NCCOCCOCC(=O)N[C@@H](CC(=O)O)C(=O)NCCOCCOCC(=O)NCCCCCCCCCCC(=O)O)C(=O)O)CSCC(=O)N[C@@H](Cc2ccccc2)C(=O)N[C@@H](Cc2cccc(C)c2)C(=O)N[C@@H](CC(=O)O)C1=O [compound 2073] ({CH2CO}-F[Phe(3-Me)]D[NHexGly]YLNR[NMeNle][Ahp(2)]P[Tle]VC[βAsp][AEEA]D[AEEA][Aun]-OH; thioether N-14) |
| 29.9 | CCCCCCN1CC(=O)N[C@@H](Cc2ccc(O)cc2)C(=O)N[C@@H](CC(C)C)C(=O)N[C@@H](CC(N)=O)C(=O)N[C@@H](CCCNC(=N)N)C(=O)N(C)[C@@H](CO)C(=O)N[C@@H](CCCCC)C(=O)N2CCC[C@H]2C(=O)N[C@@H](C(C)(C)C)C(=O)N[C@@H](CO)C(=O)N[C@H](C(=O)N[C@@H](CC(=O)NCCOCCOCC(=O)N[C@@H](CC(=O)O)C(=O)NCCOCCOCC(=O)NCCCCCCCCCCC(=O)O)C(=O)O)CSCC(=O)N[C@@H](Cc2ccccc2)C(=O)N[C@@H](Cc2ccc(O)cc2)C(=O)N[C@@H](CC(=O)O)C1=O [compound 2068] ({CH2CO}-FYD[NHexGly]YLNR[NMeS][Ahp(2)]P[Tle]SC[βAsp][AEEA]D[AEEA][Aun]-OH; thioether N-14) |
| 27.8 | CCCCCCN1CC(=O)N[C@@H](Cc2ccc(O)cc2)C(=O)N[C@@H](CC(C)C)C(=O)N[C@@H](CC(N)=O)C(=O)N[C@@H](CCCNC(=N)N)C(=O)N(C)[C@@H](CO)C(=O)N[C@@H](CCCCC)C(=O)N2CCC[C@H]2C(=O)N[C@@H](C(C)(C)C)C(=O)N[C@@H](CC(=O)O)C(=O)N[C@H](C(=O)N[C@@H](CC(=O)NCCOCCOCC(=O)N[C@@H](CC(=O)O)C(=O)NCCOCCOCC(=O)NCCCCCCCCCCC(=O)O)C(=O)O)CSCC(=O)N[C@@H](Cc2cccc(C)c2)C(=O)N[C@@H](Cc2ccc(O)cc2)C(=O)N[C@@H](CC(=O)O)C1=O [compound 2071] ({CH2CO}-[Phe(3-Me)]YD[NHexGly]YLNR[NMeS][Ahp(2)]P[Tle]DC[βAsp][AEEA]D[AEEA][Aun]-OH; thioether N-14) |
| 24.1 | CCCCCCN1CC(=O)N[C@@H](Cc2ccc(O)cc2)C(=O)N[C@@H](CC(C)C)C(=O)N[C@@H](CC(N)=O)C(=O)N[C@@H](CCCNC(=N)N)C(=O)N(C)[C@@H](CCCC)C(=O)N[C@@H](CCCCC)C(=O)N2CCC[C@H]2C(=O)N[C@@H](C(C)(C)C)C(=O)N[C@@H](CC(=O)O)C(=O)N[C@H](C(=O)N[C@@H](CC(=O)NCCOCCOCC(=O)N[C@@H](CC(=O)O)C(=O)NCCOCCOCC(=O)NCCCCCCCCCCC(=O)O)C(=O)O)CSCC(=O)N[C@@H](Cc2ccccc2)C(=O)N[C@@H](Cc2cccc(C)c2)C(=O)N[C@@H](CC(=O)O)C1=O [compound 2075] ({CH2CO}-F[Phe(3-Me)]D[NHexGly]YLNR[NMeNle][Ahp(2)]P[Tle]DC[βAsp][AEEA]D[AEEA][Aun]-OH; thioether N-14) |
| 21.1 | CCCCCCN1CC(=O)N[C@@H](Cc2ccc(O)cc2)C(=O)N[C@@H](CC(C)C)C(=O)N[C@@H](CC(N)=O)C(=O)N[C@@H](CCCN)C(=O)N(C)[C@@H](CCCC)C(=O)N[C@@H](CCCCC)C(=O)N2CCC[C@H]2C(=O)N[C@@H](C(C)(C)C)C(=O)N[C@@H](C(C)C)C(=O)N[C@H](C(=O)N[C@@H](CC(=O)NCCOCCOCC(=O)N[C@@H](CC(=O)O)C(=O)NCCOCCOCC(=O)NCCCCCCCCCCC(=O)O)C(=O)O)CSCC(=O)N[C@@H](Cc2ccccc2)C(=O)N[C@@H](Cc2cccc(C)c2)C(=O)N[C@@H](CC(=O)O)C1=O [compound 2072] ({CH2CO}-F[Phe(3-Me)]D[NHexGly]YLN[Orn][NMeNle][Ahp(2)]P[Tle]VC[βAsp][AEEA]D[AEEA][Aun]-OH; thioether N-14) |
